Test results as given in PubChem BioAssay (NCI).
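Protocol summary: plate cells (96-well), add compound at 5 concentrations, incubate 48 h, interpolate endpoints linearly. GI50: concentration for 50% inhibition of growth. At the TGI there is no net growth.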

Legend:
Assay in all cases: DTP human tumour cell line panel, 48 h
[1] = system: 786-0 renal
[2] = system: A498 renal
[3] = system: A549 NSCLC
[4] = system: ACHN renal
[5] = system: BT-549 breast
[6] = system: CAKI-1 renal
[7] = system: CCRF-CEM leukemia
[8] = system: COLO 205 colon
[9] = system: DU-145 prostate
[10] = system: EKVX NSCLC
[11] = system: HCC-2998 colon
[12] = system: HCT-116 colon
[13] = system: HCT-15 colon
[14] = system: HL-60(TB) leukemia
[15] = system: HOP-62 NSCLC
[16] = system: HOP-92 NSCLC
[17] = system: HS 578T breast
[18] = system: HT29 colon
[19] = system: IGROV1 ovarian
[20] = system: K-562 leukemia
[21] = system: KM12 colon
[22] = system: LOX IMVI melanoma
[23] = system: M14 melanoma
[24] = system: MALME-3M melanoma
[25] = system: MCF7 breast
[26] = system: MDA-MB-231 breast
[27] = system: MDA-MB-435
[28] = system: MDA-MB-468 breast
[29] = system: MOLT-4 leukemia
[30] = system: NCI-H226 lung

CN(C)c1ccc(/C=C/c2n(Cc3ccc4ccccc4c3)c3ccccc3[n+]2Cc2ccc3ccccc3c2)cc1
GI50 [1]: 287 nM | TGI [1]: 1440 nM | GI50 [2]: 269 nM | TGI [2]: 1150 nM | GI50 [3]: 317 nM | TGI [3]: 1520 nM | GI50 [4]: 326 nM | TGI [4]: 1210 nM | GI50 [5]: 187 nM | TGI [5]: 809 nM | GI50 [6]: 331 nM | TGI [6]: 1310 nM | GI50 [7]: 315 nM | TGI [7]: 1410 nM | GI50 [8]: 211 nM | TGI [8]: 434 nM | GI50 [9]: 354 nM | TGI [9]: 1420 nM | GI50 [10]: 252 nM | TGI [10]: 905 nM | GI50 [11]: 325 nM | TGI [11]: 1330 nM | GI50 [12]: 218 nM | TGI [12]: 1300 nM | GI50 [13]: 458 nM | TGI [13]: 1740 nM | GI50 [14]: 228 nM | TGI [14]: 795 nM | GI50 [15]: 351 nM | TGI [15]: 1410 nM | GI50 [16]: 162 nM | TGI [16]: 600 nM | GI50 [17]: 270 nM | TGI [17]: 1420 nM | GI50 [18]: 235 nM | TGI [18]: 1340 nM | GI50 [19]: 382 nM | TGI [19]: 1530 nM | GI50 [20]: 228 nM | TGI [20]: > 22900 nM | GI50 [21]: 315 nM | TGI [21]: 1300 nM | GI50 [22]: 269 nM | TGI [22]: 999 nM | GI50 [23]: 369 nM | TGI [23]: 1530 nM | GI50 [24]: 249 nM | TGI [24]: 740 nM | GI50 [25]: 281 nM | TGI [25]: 1100 nM | GI50 [26]: 292 nM | TGI [26]: 998 nM | GI50 [27]: 338 nM | TGI [27]: 1240 nM | GI50 [28]: 165 nM | TGI [28]: 731 nM | GI50 [29]: 303 nM | TGI [29]: 1660 nM | GI50 [30]: 257 nM
